Assay: xn = mol fraction of the nth substance listed
Settings: 313.15 K, Fluid (supercritical or subcritical phases)

CCOC(C)=O [ethyl acetate] + O=C=O
mass density [kg/m3]
Settings | 1000 kPa | 2000 kPa | 3000 kPa | 4000 kPa | 5000 kPa | 6000 kPa | 7000 kPa | 8000 kPa | 9000 kPa | 10000 kPa
x2 = 0 | 876.9 | 878 | 878.9 | 880 | 881 | 881.9 | 882.9 | 883.9 | 884.9 | 885.9
x2 = 0.1 | 880.2 | 881.4 | 882.5 | 883.7 | 884.7 | 885.9 | 887 | 888 | 889.1 | 890.1
x2 = 0.2 | – | 884.1 | 885.4 | 886.7 | 887.9 | 889.2 | 890.4 | 891.6 | 892.7 | 893.9
x2 = 0.3 | – | 886.2 | 887.6 | 889.1 | 890.5 | 891.9 | 893.3 | 894.6 | 896 | 897.2
x2 = 0.4 | – | – | 888.8 | 890.6 | 892.2 | 893.9 | 895.4 | 897 | 898.6 | 900
x2 = 0.5 | – | – | – | 889.9 | 891.9 | 893.9 | 895.8 | 897.7 | 899.6 | 901.4
x2 = 0.6 | – | – | – | – | – | 890.1 | 892.6 | 895 | 897.4 | 899.7
x2 = 0.7 | – | – | – | – | – | 879.2 | 882.7 | 886.2 | 889.4 | 892.5
x2 = 0.8 | – | – | – | – | – | – | 858.2 | 863.7 | 869 | 873.9
x2 = 0.9 | – | – | – | – | – | – | – | 800.6 | 813 | 823.7
x2 = 0.95 | – | – | – | – | – | – | – | – | 745.6 | 767.4

Source: the NIST ThermoML archive (doi:10.1021/je050514j)
